How the values were obtained:
[1] = test system: S. aureus engineered with murB antisense; type: cell-based, Staphylococcus aureus
[2] = test system: B. anthracis murB-2 antisense strain

| Structure (SMILES) | change of potency / sensitivity in presence of inducer [1] | IC50 shift (ratio of EC50 with and without xylose) [2] |
| --- | --- | --- |
| Cc1onc(-c2c(Cl)cccc2Cl)c1C(=O)N[C@@H]1C(=O)N2[C@@H]1SC(C)(C)[C@@H]2C(=O)O [dicloxacillin] | increase in potency |  |
| CO/N=C(\C(=O)N[C@@H]1C(=O)N2C(C(=O)O)=C(COC(C)=O)CS[C@H]12)c1csc(N)n1 [cefotaxime] |  | 343 |
| CO[C@@]1(NC(=O)Cc2cccs2)C(=O)N2C(C(=O)O)=C(COC(N)=O)CS[C@@H]21 [cefoxitin] | increase in potency |  |

— patent US8298543B2, “Identification and application of antibiotic synergy” (priority 2005, dated 2012)
